The source of these data is US10202371B2, “Oxazolidin-2-one-pyrimidine derivatives and the use thereof as phosphatidylinositol-3-kinase inhibitors” (Novartis AG, priority 2012, dated 2019).

In one assay the target is PI3Kgamma (Homo sapiens (Human), UniProt P48736). In words: Biochemical assay PI3Kgamma (Adapta TR-FRET). The settings on record: read-out: PI3Kg/IC50. From the text: The TR-FRET Adapta™ Universal Kinase Assay Kit was purchased from Invitrogen
Corporation (Carlsbad/CA, USA) (Cat. No. PV5099). The kit contains the following reagents: Adapta Eu-anti-ADP Antibody (Europium labeled anti-ADP antibody in HEPES buffered saline, Cat. No. PV5097), Alexa Fluor® 647-labeled ADP tracer (Alexa Fluor® 647-labeled ADP tracer in HEPES buffered saline, Cat. No. PV5098), proprietary TR-FRET dilution buffer pH 7.5 (Cat. No. PV3574).
PIK3CD substrate Phosphatidylinositol was obtained from Invitrogen (vesicules consisting of 2 mM PI in 50 mM HEPES pH7.5; Cat. No. PV5371).
Time-Resolved Fluorescence Resonance Energy Transfer (TR-FRET) is a technology based on energy transfer between two adjacent dyes, from an excited electron in one dye (the donor) to an electron of an adjacent dye (the acceptor) through resonance, then released as a photon. This energy transfer is detected by an increase in the fluorescence emission of the acceptor, and a decrease in the fluorescence emission of the donor. TR-FRET assays for protein kinases use a long-lifetime lanthanide Terbium or Europium chelates as the donor species which overcome interference from compound autofluorescence or light scatter from precipitated compounds, by introducing a delay after excitation by a flashlamp excitation source. Results are often expressed as a ratio of the intensities of the acceptor and donor fluorophores. The ratiometric nature of such a value corrects for differences in assay volumes between wells, as well as corrects for quenching effects due to colored compounds. The Adapta™ assay can be divided into two phases: a kinase reaction phase and an ADP detection phase. In the kinase reaction phase, all kinase reaction components are added to the well and the reaction is allowed to incubate for a set period of time specific for each kinase. After the reaction, a detection solution of Eu-labeled anti-ADP antibody, Alexa Fluor® 647-labeled ADP tracer, and EDTA (to stop the kinase reaction) are added to the assay well. ADP formed by the kinase reaction will displace the Alexa Fluor® 647-labeled ADP tracer from the antibody, resulting in a decrease in TR-FRET signal. In the presence of an inhibitor, the amount of ADP formed by the kinase reaction is reduced, and the resulting intact antibody-tracer interaction maintains a high TR-FRET signal. In the Adapta™ assay, the donor (Europium-anti-ADP antibody) is excited at 340 nm and will transfer its energy to the acceptor (Alexa Fluor® 647-labeled ADP tracer). The emission from the Alexa Fluor® 647 can be monitored with a filter centered at 665 nm because it is located between the emission peaks of the donor, which is measured at 615/620 nm.
50 nL of compound dilutions were dispensed onto white 384-well small volume polystyrene plate as described in section 2.2. Then 5 μL of PI3Kg and PI3Kd and lipid substrate (PI or PIP2:PS) followed by 5 μL of ATP (final assay volume 10 μL) are incubated at RT. The standard reaction buffer for the Adapta™ TR-FRET assay contained 10 mM Tris-HCl pH 7.5, 3 mM MgCl2, 50 mM NaCl, 1 mM DTT, 0.05% CHAPS. Reactions were stopped with 5 μL of a mixture of EDTA containing the Eu-labeled anti-ADP antibody and the Alexa Fluor® 647-labeled ADP tracer in TR-FRET dilution buffer (proprietary to IVG). Plates are read 15 to 60 mins later in a Synergy2 reader using an integration time of 0.4 seconds and a delay of 0.05 seconds. […] The standard compound NVP-BGT226 was used as a reference compound and included in all assay plates in the form of 16 dilution points in duplicate.
Data are analyzed using Excel fit software or Graphpad Prism. EC50 values were derived by fitting a sigmoidal dose-response curve to a plot of assay readout over inhibitor concentration. All fits were performed with the program XLfit4 (ID Business Solutions, Guildford, UK). […] All fits were performed with the program XLfit4 (ID Business Solutions, Guildford, UK).
A general note: Time-resolved FRET reads energy transfer from a long-lived donor to a nearby acceptor.

In assay [1] the target is mTOR (TSC1-/- MEFs cells) (Mus musculus (Mouse), UniProt Q9JLN9). In words: Cellular assay mTOR, phospho-T389 S6K1 SureFire in TSC1-/- MEF cells. In kind it is cell-based. The settings on record: read-out: mTOR TS6K(T389)_TSC1ko/ IC50. From the text:
A cell based assay (384-well format) was developed for determination of compound effects on cellular mTOR activity in MEF (mouse embryo fibrobrasts) cells derived from mice lacking TSC1 (Tuberosclerosis Complex1) a potent suppressor of mTOR activity. Due to lack of TSC1, mTOR is constitutively activated resulting in permanent phoshorylation of Thr 389 of S6 kinase 1 (S6K1) which is one of the downstream targets of mTOR.
Using a SureFire Kit that enables to determine the phosphorylation of Thr389 on the S6K1 an assay was developed, validated and implemented in the Alpha-Screen format that allows the quantitative determination of phospho-T389 of S6K1 in cell lysates. […] These were in agreement with those values obtained with the biochemical mTOR ATP-binding assay enabling a quantitative comparison of potency of mTOR inhibitors.
TSC1−/− MEFs cells (Kwiatkowski, D. J., Zhang, H., Bandura, J. L., Heiberger, K. M., Glogauer, M., el-Hashemite, N., and Onda, H. (2002) Hum. Mol. Genet. 11, 525-534) were cultured in DMEM high glucose medium supplemented with 10% FBS (Invitrogen), 2 mM Glutamine and 1% (w/v) Penicillin/Streptomycin at 37° C., 5% CO2.
The SureFire kit for determination of P70S6kinase phosphorylation was purchased from Perkin Elmer (p70S6K p-T389, #TGR70S50K) and the assay was performed according to the instructions of the supplier and according to the generic method for SureFire assays. Shortly, 5 μL cell lysate per well were transferred to 384-well white proxy-plates (for luminescent readout) and mixed with […] and […] (final volume: 12 μL). After 3 h incubation in the dark at RT luminescence was read with the Envision Reader (Perkin Elmer). Untreated cells were used as control (high control) and cells treated with 3 μM BEZ235 were used as low control. The assay window between the signals obtained for the high and the low controls were defined as 100% and compound effects were expressed as percent inhibition. IC50 values were calculated from the dose response curves by graphical extrapolation.

Chain of PI3Kgamma (P48736 whole entry, species assumed): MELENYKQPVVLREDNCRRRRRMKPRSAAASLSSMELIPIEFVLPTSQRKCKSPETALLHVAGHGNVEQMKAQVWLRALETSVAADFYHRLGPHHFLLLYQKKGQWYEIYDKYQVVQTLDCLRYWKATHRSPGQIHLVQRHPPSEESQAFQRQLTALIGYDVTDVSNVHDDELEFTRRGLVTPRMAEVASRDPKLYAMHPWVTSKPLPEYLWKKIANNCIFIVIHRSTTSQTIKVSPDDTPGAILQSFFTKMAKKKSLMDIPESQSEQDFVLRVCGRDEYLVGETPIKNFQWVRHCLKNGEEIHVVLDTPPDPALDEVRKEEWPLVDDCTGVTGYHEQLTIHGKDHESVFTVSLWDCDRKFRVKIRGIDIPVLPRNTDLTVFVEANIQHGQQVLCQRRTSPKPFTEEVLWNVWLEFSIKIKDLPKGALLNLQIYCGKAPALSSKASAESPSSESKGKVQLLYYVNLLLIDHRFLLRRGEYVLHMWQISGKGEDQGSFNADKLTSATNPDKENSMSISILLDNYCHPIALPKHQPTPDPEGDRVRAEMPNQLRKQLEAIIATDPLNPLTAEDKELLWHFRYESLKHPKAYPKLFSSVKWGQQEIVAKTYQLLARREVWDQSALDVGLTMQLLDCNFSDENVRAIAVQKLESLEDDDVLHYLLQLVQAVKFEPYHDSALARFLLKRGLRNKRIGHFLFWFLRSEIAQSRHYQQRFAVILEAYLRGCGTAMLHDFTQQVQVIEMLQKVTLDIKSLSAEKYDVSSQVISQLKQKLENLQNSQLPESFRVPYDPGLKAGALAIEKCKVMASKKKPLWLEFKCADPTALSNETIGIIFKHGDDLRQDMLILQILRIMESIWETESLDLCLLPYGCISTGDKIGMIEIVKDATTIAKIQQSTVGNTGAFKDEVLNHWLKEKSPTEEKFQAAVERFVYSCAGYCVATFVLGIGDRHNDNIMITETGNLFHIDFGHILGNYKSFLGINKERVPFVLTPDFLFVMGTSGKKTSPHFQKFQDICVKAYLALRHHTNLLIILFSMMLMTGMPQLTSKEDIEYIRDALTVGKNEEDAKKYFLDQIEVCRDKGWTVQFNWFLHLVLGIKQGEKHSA

`CC[C@H]1[C@H](c2ccc(OC)cc2)OC(=O)N1c1cc(-c2cnc(N)nc2C(F)(F)F)nc(N2CCOCC2)n1` (relative stereo) [Example 2, (4S*,5S*)-3-(2′-amino-2-morpholino-4′-(trifluoromethyl)-[4,5′-bipyrimidin]-6-yl)-4-ethyl-5-(4-methoxyphenyl)oxazolidin-2-one]: the IC50 at PI3Kgamma was 5800 nM. `C[C@H]1[C@H](c2nccs2)OC(=O)N1c1cc(-c2cnc(N)nc2C(F)(F)F)nc(N2CCOCC2)n1` [Example 1, (4S,5R)-3-(2′-Amino-2-morpholin-4-yl-4′-trifluoromethyl-[4,5′]bipyrimidinyl-6-yl)-4-methyl-5-thiazol-2-yl-oxazolidin-2-one]: the IC50 in assay [1] came out at 243 nM; at PI3Kgamma it was 92 nM. The matching figures for `COc1ccc([C@@H]2OC(=O)N(c3cc(-c4cnc(N)nc4C(F)(F)F)nc(N4CCOCC4)n3)[C@H]2CO)cc1` [Example 3, (4S,5S)-3-(2′-Amino-2-morpholino-4′-(trifluoromethyl)-[4,5′-bipyrimidin]-6-yl)-4-(hydroxymethyl)-5-(4-methoxyphenyl)oxazolidin-2-one]: 159 nM and 110 nM. On the same counts, the results for `C[C@H]1[C@H](c2ccccc2)OC(=O)N1c1cc(-c2cnc(N)nc2C(F)(F)F)nc(N2CCOCC2)n1` [Example 5] are 371 nM and 3500 nM. Regarding `CC[C@H]1[C@H](c2nccs2)OC(=O)N1c1cc(-c2cnc(N)nc2C(F)(F)F)nc(N2CCOCC2)n1` [Example 7], at PI3Kgamma, the IC50 turned out to be 3000 nM. The same measure, in the same setting: to `CCC1C(c2cccnc2)OC(=O)N1c1cc(-c2cnc(N)nc2C(F)(F)F)nc(N2CCOCC2)n1` (centres unmarked) [Example 8] belongs 580 nM; to `CC1C(c2cccnc2)OC(=O)N1c1cc(-c2cnc(N)nc2C(F)(F)F)nc(N2CCOCC2)n1` (centres unmarked) [Example 9], 230 nM. As to `Nc1ncc(-c2cc(N3C(=O)O[C@@H](c4ccccc4)[C@@H]3CO)nc(N3CCOCC3)n2)c(C(F)(F)F)n1` [Example 10], the values for the IC50 (in assay [1]; on PI3Kgamma) were 221 nM and 343 nM, respectively. The matching figures for `C[C@H]1[C@@H](c2nccs2)OC(=O)N1c1cc(-c2cnc(N)nc2C(F)(F)F)nc(N2CCOCC2)n1` [Example 11]: 747 nM and 102 nM. The matching figures for `COCCOc1ccc([C@@H]2OC(=O)N(c3cc(-c4cnc(N)nc4C(F)(F)F)nc(N4CCOCC4)n3)[C@H]2CO)cc1` [Example 12]: 274 nM and 135 nM.

Take `Nc1ncc(-c2cc(N3C(=O)O[C@@H](c4ccc(OCCO)cc4)[C@@H]3CO)nc(N3CCOCC3)n2)c(C(F)(F)F)n1` [Example 13]: the figures for the IC50 (in assay [1]; on PI3Kgamma) were 1070 nM and 100 nM, respectively. On the same counts, the results for `Nc1ncc(-c2cc(N3C(=O)O[C@@H](c4ccc(OCCCO)cc4)[C@@H]3CO)nc(N3CCOCC3)n2)c(C(F)(F)F)n1` [Example 14] are 724 nM and 27 nM.
